The subject of series [1] is sympathetic neurons. Particulars: cited from earlier work.
For series [2], the system named is renal arteries. Particulars: pig, in vivo.
The test system of series [3] is kidney norepinephrine (NE). Set-up: species or system porcine. As to conditions: pig, in vivo.

Turning to `N=C(N)NCCN1CCCCCCC1` [guanethidine, Guanidine, [2-(hexahydro-1(2H)-azocinyl)ethyl]-], in series [1], the “concentration accumulated within neurons in vivo” value is 500 to 1000 µM.

Regarding “Guanidine, [2-(hexahydro-1(2H)-azocinyl)ethyl]-, sulfate (1:1) [Guanethidine monosulfate]”, the “perivascular indications of denervation (histology)” value in series [2] was “nerve degeneration characterized by hypervacuolization and eosinophilia”. For the same compound, in series [3], the “average NE level in renal cortex tissue” value worked out at 64 and the “reduction in renal cortex NE” value came to 86%.

The record behind these values is patent US9011879B2 (priority 2009, dated 2015).
